The results in this text go back to US8658797B2, “Asymmetric ureas and medical uses thereof” (Helsinn Healthcare SA, priority 2011, dated 2014).

For one test, the system named is Male C57BL/6J mice. Kind of test: Evaluation of GHSR1a antagonists on food intake test in mouse. It is filed as in vivo. The conditions noted are these: for Mouse Food Intake effect: NSE: not significant effect. Here is the method: Male C57BL/6J mice, 18-22 g body weight, were fasted overnight (16 h before compound administration) and placed in a regular light dark cycle (6:00-18:00 light/18:00-6:00 dark). After 1 wk acclimation, animals were sorted into two groups (n=6 each, 2 per cage) based on body weight. Animals in group one were be treated with vehicle and animals in group 2 were treated with the test agent (n=6 for each group). The cumulative food intake was evaluated at 1, 2, 4, 8 and 24 hrs after drug or vehicle treatment. Food intake was measured by subtracting uneaten food from the initial premeasured food.

Test [1] has as its target T1, GHSR-1a (Homo sapiens, UniProt Q92847).
T1 construct: expressed in transfected cells; host or cells: HEK293
Put plainly: Calcium FLIPR assay, GHSR-1a antagonism (reduction of ghrelin response). As to conditions: HEK293/GHSR1a cell line; ghrelin 10 nM; read-out: IC50 FLIPR antagonist Activity. It is filed as cell-based. On the procedure:
(§1) The intracellular calcium assay was carried out in a 384-well format FLIPR™ (Molecular Device) HEK293/GHSR1a cell line. Cells were seeded 24 hr prior to the experiments at an optimal density per well. Preincubation with selected calcium dye lasted for 30-60 min at room temperature or 37° C. Test compounds, dissolved in DMSO, were added at the appropriate time and incubated for 15 min followed by the addition of ghrelin with FlexStation or FLIPR. Relative fluorescence was monitored by the FLIPR™ Molecular Device. EC50 and IC50 values were estimated from dose-response data using GraphPad Prism software. To check for GHSR-1a agonism the compound was added at t=20 sec. and the calcium response was followed for 2 minutes. To check for GHSR-1a antagonism the compound and Ghrelin (10 nM) were added to the cells at t=20 sec. and the calcium response was measured for 2 minutes. The potency of the antagonist was calculated by its ability to reduce the ghrelin response. Dose-response curves were made for relevant antagonists.

The target of test [2] is T1, GHSR-1a. Put plainly: Calcium FLIPR assay, GHSR-1a agonism. Format: cell-based. The conditions noted are these: HEK293/GHSR1a cell line; read-out: EC50 FLIPR against Activity (EC50 part of μM/Emax). Here is the method: as §1
Setting [3] is: Mus musculus, ip, 10 mg/kg i.p., at 1 hr.
Setting [4] is: Mus musculus, ip, 30 mg/kg i.p., at 1 hr.

T1 sequence (Q92847 whole entry): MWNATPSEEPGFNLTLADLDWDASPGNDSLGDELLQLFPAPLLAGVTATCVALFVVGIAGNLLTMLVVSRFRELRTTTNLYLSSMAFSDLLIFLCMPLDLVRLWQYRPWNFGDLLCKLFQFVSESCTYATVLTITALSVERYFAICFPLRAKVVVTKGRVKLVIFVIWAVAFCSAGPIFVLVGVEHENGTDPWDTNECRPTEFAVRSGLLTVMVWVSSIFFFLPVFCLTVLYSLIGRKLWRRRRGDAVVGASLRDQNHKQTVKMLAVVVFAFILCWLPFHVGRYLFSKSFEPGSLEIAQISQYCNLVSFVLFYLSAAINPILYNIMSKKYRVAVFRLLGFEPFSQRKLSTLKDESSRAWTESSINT

For the compound `COc1ccc(C(CO)NC(=O)N(C)C2CCN(C)CC2)c2ccccc12` (stereo not drawn), the inhibition in vivo (in general, the relative decrease from the control value, in per cent) at 10 mg/kg with Male C57BL/6J mice (setting [3]) is 47%. On GHSR-1a [1], the IC50 (in general, the concentration at which inhibition is half-maximal) was found to be 66 nM. Besides, the EC50 on GHSR-1a [2] was 0.02 µM.
Regarding `COc1ccc(C(C)NC(=O)N(C)C2CCN(C)CC2(C)C)c2ccccc12` (stereo not drawn), the “Mouse Food Intake effect” value in the test with Male C57BL/6J mice (10 mg/kg i.p.) is listed as “NSE (10 mg/kg)”. Besides, the IC50 at GHSR-1a [1] was 12 nM. Besides, the EC50 on GHSR-1a [2] stood at 0.01 µM.
Compound `CN1CCC(N(C)C(=O)NC(CO)c2cccc3ccccc23)CC1` (stereo not drawn) returned an inhibition in vivo at 10 mg/kg with Male C57BL/6J mice (Mus musculus, ip, 10 mg/kg i.p., 'at to 24 hrs') of 27%. For the same compound, at GHSR-1a [1], the IC50 was 910 nM. In addition, the EC50 on GHSR-1a [2] is 0.49 µM.
As for `COc1ccc(C(C)NC(=O)N(C)C2CCN(C)CC2)c2ccccc12` (stereo not drawn), the “Mouse Food Intake effect” value with Male C57BL/6J mice (10 mg/kg i.p.) is listed as “NSE”. The “Mouse Food Intake, activity up to” value with Male C57BL/6J mice (30 mg/kg i.p.) was at most 24 h. In addition, in the test with Male C57BL/6J mice (30 mg/kg i.p., at 1 hr), the “Mouse Food Intake % increase food intake” value came to 70%. Moreover, the concentration for half-maximal inhibition (IC50) at GHSR-1a [1] is 40 nM. Further, the EC50 on GHSR-1a [2] came to 0.03 µM.
As to `CN1CCC(N(C)C(=O)NC(COCc2ccccc2)c2cccc(Cl)c2Cl)CC1` (stereo not drawn), the “Mouse Food Intake effect” value with Male C57BL/6J mice (3 mg/kg i.p.) is “NSE”. Besides, the entries for the “Mouse Food Intake, activity up to” value in the test with Male C57BL/6J mice (10 mg/kg i.p.) and in the test on Male C57BL/6J mice (30 mg/kg i.p.) were at most 4 h and at most 2 h, respectively. The compound also came in with an inhibition in vivo at 10 mg/kg with Male C57BL/6J mice (setting [3]) of 40%. In the test on Male C57BL/6J mice (setting [4]), the inhibition in vivo at 30 mg/kg is 50%. The IC50 at GHSR-1a [1] turned out to be 70 nM.
As to `CC(NC(=O)N(C)C1CCN(C)CC1(C)C)c1cccc(Cl)c1Cl` (stereo not drawn), the inhibition in vivo at 10 mg/kg in the test with Male C57BL/6J mice (setting [3]) turned out to be 26%. Besides, the IC50 at GHSR-1a [1] came to 12 nM.
As to `CC(NC(=O)N(Cc1ccccc1F)C1CCN(C)CC1(C)C)c1cccc(Cl)c1Cl` (stereo not drawn), the “Mouse Food Intake effect” value with Male C57BL/6J mice (10 mg/kg i.p.) is on record as “NSE (10 mg/kg)”. For the same compound, the IC50 on GHSR-1a [1] came out at 7 nM.
For the compound `COc1ccc(C(C)NC(=O)N(O)C2CCN(C)CC2)c2ccccc12` (stereo not drawn), the EC50 at GHSR-1a [2] is 0.0021 µM.
In the case of `COc1ccc(C(C)NC(=O)N(OC)C2CCN(C)CC2)c(Cl)c1Cl` (stereo not drawn), at GHSR-1a [1], the IC50 amounted to 4 nM. Further, the EC50 at GHSR-1a [2] was 0.0082 µM.
As for `CC(NC(=O)N(Cc1ccccc1)C1CCN(C)CC1)c1cccc(Cl)c1Cl` (stereo not drawn), the inhibition in vivo at 10 mg/kg with Male C57BL/6J mice (setting [3]) turned out to be 47%. The IC50 at GHSR-1a [1] was 22 nM. Moreover, at GHSR-1a [2], the EC50 was determined as 16.8 µM.
In the case of `CC(NC(=O)N(Cc1cccc(F)c1)C1CCN(C)CC1)c1cccc(Cl)c1Cl` (stereo not drawn), the inhibition in vivo at 10 mg/kg in the test with Male C57BL/6J mice (setting [3]) is 44%. In addition, on GHSR-1a [1], the IC50 turned out to be 65 nM.
`CC(NC(=O)N(C)C1CCN(C)CC1)c1cccc(Cl)c1Cl` (stereo not drawn): the “Mouse Food Intake effect” value in the test with Male C57BL/6J mice (10 mg/kg i.p.) is “NSE (10 mg/kg)”. For the same compound, the IC50 on GHSR-1a [1] was 120 nM. The EC50 at GHSR-1a [2] stood at 0.009 µM.
For `C[C@@H](NC(=O)N(Cc1ccccc1)C1CCN(C)CC1(C)C)c1cccc2ccccc12` (stereo partly drawn), the “Mouse Food Intake effect” value in the test on Male C57BL/6J mice (30 mg/kg i.p.) was “NSE (30 mg/kg)”. Also, at GHSR-1a [1], the IC50 is 5 nM. For the same compound, the EC50 at GHSR-1a [2] amounted to 0.006 µM.
For the compound `CC(NC(=O)N(Cc1ccccc1Cl)C1CCN(C)CC1)c1cccc(Cl)c1Cl` (stereo not drawn), in the test with Male C57BL/6J mice (3 mg/kg i.p., after 1 hr), the “Mouse Food Intake, duration of activity” value is “no activity up to follow hrs”. The “Mouse Food Intake, activity up to” value in the test with Male C57BL/6J mice (10 mg/kg i.p.) and with Male C57BL/6J mice (30 mg/kg i.p.) was at most 24 h each time. In the test with Male C57BL/6J mice (Mus musculus, ip, 3 mg/kg i.p., at 1 hr), this compound had an inhibition in vivo at 3 mg/kg of 39%. This compound also yielded an inhibition in vivo at 10 mg/kg in the test on Male C57BL/6J mice (setting [3]) of 95%. This compound displayed an inhibition in vivo at 30 mg/kg with Male C57BL/6J mice (Mus musculus, ip, 30 mg/kg i.p., at 2 hr) of 70%. In addition, the IC50 on GHSR-1a [1] was found to be 38 nM.
Regarding `COc1ccc(C(C)NC(=O)N(C)C2CCN(C)CC2(C)C)c(Cl)c1Cl` (stereo not drawn), the “Mouse Food Intake effect” value in the test with Male C57BL/6J mice (10 mg/kg i.p.) was “NSE (10 mg/kg)”. Moreover, the IC50 at GHSR-1a [1] was determined as 3 nM. Also, on GHSR-1a [2], the EC50 was determined as 0.01 µM.
For the compound `CCN(C(=O)NC(CCc1cccc(OCc2cccnc2)c1)c1cccc2ccccc12)C1CCN(C)CC1` (stereo not drawn), in the test on Male C57BL/6J mice (10 mg/kg i.p.), the “Mouse Food Intake, activity up to” value is at most 24 h. In addition, the inhibition in vivo at 10 mg/kg in the test with Male C57BL/6J mice (setting [3]) stood at 74%. In addition, the IC50 at GHSR-1a [1] came out at 75 nM. The EC50 on GHSR-1a [2] stood at 18.7 µM.
For the compound `CCN(C(=O)NC(C)c1cccc2ccccc12)C1CCN(C)CC1` (stereo not drawn), the “Mouse Food Intake, activity up to” value in the test with Male C57BL/6J mice (30 mg/kg i.p.) was at most 24 h. Further, the inhibition in vivo at 30 mg/kg in the test on Male C57BL/6J mice (setting [4]) worked out at 28%. The half-inhibitory concentration (IC50) at GHSR-1a [1] was found to be 320 nM.
For `COc1cccc(CN(C(=O)N[C@H](C)c2cccc(Cl)c2Cl)C2CCN(C)CC2C)c1` (stereo partly drawn), the “Mouse Food Intake effect” value in the test on Male C57BL/6J mice (10 mg/kg i.p.) is given as “NSE (10 mpk)”. Further, at GHSR-1a [1], the IC50 amounted to 5 nM.
`COc1cccc(CN(C(=O)NC(C)c2cccc(Cl)c2Cl)C2CCN(C)CC2(C)C)c1` (stereo not drawn): the “Mouse Food Intake effect” value with Male C57BL/6J mice (10 mg/kg i.p.) is “NSE (10 mg/kg)”. The IC50 at GHSR-1a [1] was 5 nM.
As for `C[C@@H](NC(=O)N(C)C1CCN(C)CC1(C)C)c1cccc2ccccc12` (stereo partly drawn), the “Mouse Food Intake, activity up to” value with Male C57BL/6J mice (30 mg/kg i.p.) was at most 8 h. In the test with Male C57BL/6J mice (Mus musculus, ip, 30 mg/kg i.p., at 4 h), 30 mg/kg produced 47% inhibition in vivo. Also, on GHSR-1a [1], the IC50 turned out to be 21 nM. Moreover, the EC50 on GHSR-1a [2] amounted to 0.009 µM.
